Measurements from publication PMC4337820 (Journal of medicinal chemistry, 2015).
Read-outs that look alike come from different tables or passages of the source.

Assays:
[1] = test system: L6 cells (rat skeletal myoblasts); test: Cytotoxicity in host L6 cells; type: cell-based
[2] = test system: T.b. rhodesiense, strain STIB 900 trypomastigotes; test: In vitro activity against T. b. rhodesiense; type: cell-based; settings: for anti-HAT activity class (TDR criteria): BSF T. b. rhodesiense
[3] = test system: T. cruzi, strain Tulahuen C4 amastigotes; test: In vitro activity against T. cruzi amastigotes; type: cell-based; settings: for antichagasic activity class (TDR criteria): T. cruzi amastigotes; for Bnz/comp: fold potency against T. cruzi relative to Bnz; for SI (IC50 in L6 cells/IC50 in T. cruzi): selectivity index vs L6 cells
[4] = test system: Chagas disease; settings: cited from earlier work; for cure rates, chronic stage: adults in the chronic stage
[5] = test system: transgenic T. cruzi parasites expressing firefly luciferase; test: In vivo antichagasic activity, acute T. cruzi infected murine model; settings: i.p., 15 mg/kg/day (compound 5: 13 mg/kg/day)
[6] = test system: blood stream form T. b. brucei parasites overexpressing TbNTR; test: Susceptibility of blood stream form T. b. brucei with or without elevated TbNTR; type: cell-based
[7] = molecular target: T1, T. cruzi CYP51 (Trypanosoma cruzi, UniProt Q7Z1V1); test: Reconstituted CYP51 reaction inhibition; type: biochemical; settings: compound 19: at high I/E ratios (≥ 20)
[8] = test system: Caco-2 cells; test: Caco-2 monolayer permeability; type: in vitro ADME; settings: 10 μM, 2 h
[9] = molecular target: T1, T. cruzi CYP51; test: Spectral titration binding to T. cruzi CYP51; settings: TcCYP51 spectral response
[10] = test system: T. cruzi, strain Tulahuen C4 amastigotes; settings: cited from earlier work
[11] = test system: T.b. rhodesiense, strain STIB 900 trypomastigotes; settings: cited from earlier work
[12] = polar surface area, predicted; cited from earlier work
[13] = test system: L6 cells (rat skeletal myoblasts); settings: read-out: Cytotox. L6 IC-50; host L6 cells; cited from earlier work
[14] = Caco-2 monolayer permeability; type: in vitro ADME; settings: human, Caco-2
[15] = read-out: T.b.rhod. IC-50, strain STIB 900 trypomastigotes
[16] = read-out: T.cruzi IC-50, strain Tulahuen C4 amastigotes

T1 sequence (Q7Z1V1 whole entry): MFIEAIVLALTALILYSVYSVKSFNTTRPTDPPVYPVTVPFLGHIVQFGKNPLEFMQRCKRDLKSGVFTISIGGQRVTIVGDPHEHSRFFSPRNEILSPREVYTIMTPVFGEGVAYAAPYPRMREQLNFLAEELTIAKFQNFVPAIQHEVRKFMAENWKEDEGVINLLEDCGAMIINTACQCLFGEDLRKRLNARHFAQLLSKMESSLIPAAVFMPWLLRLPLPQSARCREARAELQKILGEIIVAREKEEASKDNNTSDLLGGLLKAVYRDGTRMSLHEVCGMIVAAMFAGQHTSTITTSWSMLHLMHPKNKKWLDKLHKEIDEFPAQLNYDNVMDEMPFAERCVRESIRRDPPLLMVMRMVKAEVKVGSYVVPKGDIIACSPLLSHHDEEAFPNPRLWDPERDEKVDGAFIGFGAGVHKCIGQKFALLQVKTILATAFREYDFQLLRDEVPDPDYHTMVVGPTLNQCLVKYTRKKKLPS

With “1-(4-phenylphenyl)-2-(1H-1,2,4-triazol-1-yl)ethan-1-one [Compound 11]” the IC50 [1] was 220 µM, the IC50 [2, 15] was 1750 nM and the “SI (IC50 in L6 cells/IC50 in T.b. rhodesiense)” value ([2]; selectivity index vs L6 cells) was 125. The “antichagasic activity class (TDR criteria)” value (from here on “antichagasic activity class”) [3] was “active”, the Bnz/comp [3] was 11.9 and the IC50 [3, 16] was 188 nM. For the same compound, the “SI (IC50 in L6 cells/IC50 in T. cruzi)” value [3] was 1164.
In the case of O=C(Cn1ccnc1[N+](=O)[O-])NCc1ccccc1 [Bnz, N-benzyl-2-(2-nitro-1H-imidazol-1-yl)acetamide], the “cure rates, acute phase” value ([4]; acute phase of Chagas disease) is given as 65-80% and the “cure rates, chronic stage” value [4] is given as 15-30%.
In the case of N#Cc1ccc(-c2ccc(NC(=O)Cn3cnc([N+](=O)[O-])n3)cc2)cc1 [Compound 2, N-[4-(4-cyanophenyl)phenyl]-2-(3-nitro-1H-1,2,4-triazol-1-yl)acetamide], the “anti-HAT activity class (TDR criteria)” value [2] is reported as “active”, the “parasite levels after 5 days of treatment” value [5] is reported as “undetectable levels” and the “fold more susceptible, TbNTR-overexpressing vs non-induced parasites” value [6] is reported as 2 to 3 fold. The Bnz/comp [3] was 10.77, the “reversibility of TcCYP51 inhibition” value [7] was “reversible” and the “Caco 2 permeability ranking” value [8] was “high”.
With O=C(Cn1cnc([N+](=O)[O-])n1)Nc1nc(-c2ccc(Cl)cc2)cs1 [Compound 3, N-[4-(4-chlorophenyl)-1,3-thiazol-2-yl]-2-(3-nitro-1H-1,2,4-triazol-1-yl)acetamide] the “antichagasic activity class” value [3] was “active” and the Bnz/comp [3] was 7.24.
For O=C(Cn1cnc([N+](=O)[O-])n1)Nc1nnc(-c2ccc(Cl)cc2)s1 [Compound 4, N-[5-(4-chlorophenyl)-1,3,4-thiadiazol-2-yl]-2-(3-nitro-1H-1,2,4-triazol-1-yl) acetamide], the “anti-HAT activity class (TDR criteria)” value [2] was “did not show any anti-HAT activity” and the Bnz/comp [3] was 0.04.
In the case of O=C(Cn1cnc([N+](=O)[O-])n1)Nc1ccc(-c2ccc(Cl)cc2)cc1 [Compound 5, N-(4′-chloro-[1,1′-biphenyl]-4-yl)-2-(3-nitro-1H-1,2,4-triazol-1-yl)acetamide], the “parasite levels after 5 days of treatment” value [5] is reported as “undetectable levels” and the “factor of increased efficacy against T. cruzi compared to analog 2” value [3] is reported as 3 fold.
For O=C(Cn1cnc([N+](=O)[O-])n1)Nc1nc(-c2ccc(F)c(F)c2)cs1 [Compound 6, N-(4-(3,4-difluorophenyl)thiazol-2-yl)-2-(3-nitro-1H-1,2,4-triazol-1-yl)acetamide], the “anti-HAT activity class (TDR criteria)” value [2] was “inactive”, the “antichagasic activity class” value [3] was “active” and the Bnz/comp [3] was 4.42.
For O=C(Cn1ccnc1[N+](=O)[O-])Nc1nc(-c2ccc(F)c(F)c2)cs1 [Compound 7, N-(4-(3,4-difluorophenyl)thiazol-2-yl)-2-(2-nitro-1H-imidazol-1-yl)acetamide], the “anti-HAT activity class (TDR criteria)” value [2] was “inactive”, the “fold less active against T. cruzi compared to 6” value [3] was “about 8.7 fold” and the “antichagasic activity class” value [3] was “borderline active”. For the same compound, the Bnz/comp [3] was 0.51.
With Cc1nc(-c2cccc(NC(=O)Cn3cnc([N+](=O)[O-])n3)c2)cs1 [Compound 8, N-(3-(2-methylthiazol-4-yl)phenyl)-2-(3-nitro-1H-1,2,4-triazol-1-yl)acetamide] the “antichagasic activity class” value [3] was “active” and the Bnz/comp [3] was 3.67.
With O=C(Cn1cnc([N+](=O)[O-])n1)Nc1ccc(N2CCCCC2)cc1 [Compound 9, 2-(3-nitro-1H-1,2,4-triazol-1-yl)-N-(4-(piperidin-1-yl)phenyl)acetamide] the “anti-HAT activity class (TDR criteria)” value [2] was “inactive”, the “antichagasic activity class” value [3] was “active” and the Bnz/comp [3] was 3.66.
For O=C(Cn1cnc([N+](=O)[O-])n1)c1ccc(F)cc1F [Compound 10, 1-(2,4-difluorophenyl)-2-(3-nitro-1H-1,2,4-triazol-1-yl)ethan-1-one], the “antichagasic activity class” value [3] was “active” and the Bnz/comp [3] was 1.29.
With CC(O)(Cn1cnc([N+](=O)[O-])n1)c1ccc(-n2ccnc2)cc1 (stereo not shown) [Compound 14, 2-[4-(1H-imidazol-1-yl)phenyl]-1-(3-nitro-1H-1,2,4-triazol-1-yl)propan-2-ol] the “fold less potent against T. cruzi than 17” value [3] was 32 fold, the “antichagasic activity class” value [3] was “active” and the Bnz/comp [3] was 0.68.
For CC(O)(Cn1cncn1)c1ccc(-n2ccnc2)cc1 (stereo not shown) [Compound 15, 2-[4-(1H-imidazol-1-yl)phenyl]-1-(1H-1,2,4-triazol-1-yl)propan-2-ol], the “anti-HAT activity class (TDR criteria)” value [2] was “inactive”.
In the case of CC(O)(Cn1cncn1)c1ccc(-c2ccccc2)cc1 (stereo not shown) [Compound 16, 2-(4-phenylphenyl)-1-(1H-1,2,4-triazol-1-yl)propan-2-ol], the “anti-HAT activity class (TDR criteria)” value [2] is reported as “inactive”, the “fold less potent against T. cruzi than 17” value [3] is reported as 7 fold and the “antichagasic activity class” value [3] is reported as “active”. The Bnz/comp [3] was 3.17.
Work on CC(O)(Cn1cnc([N+](=O)[O-])n1)c1ccc(-c2ccccc2)cc1 (stereo not shown) [Compound 17, 1-(3-nitro-1H-1,2,4-triazol-1-yl)-2-(4-phenylphenyl)propan-2-ol] yielded a Bnz/comp [3] of 21.94.
In the case of O=[N+]([O-])c1ncn(CC(O)(Cn2cncn2)c2ccc(F)cc2F)n1 (stereo not shown) [Compound 18, 2-(2,4-difluorophenyl)-1-(3-nitro-1H-1,2,4-triazol-1-yl)-3-(1H-1,2,4-triazol-1-yl)-propan-2-ol], the “fold less potent against T. cruzi than 19” value [3] is reported as 36 fold, the “fold more potent against T. cruzi than fluconazole” value [3] is reported as 8.5 fold and the Bnz/comp [3] is reported as 1.81.
In the case of O=[N+]([O-])c1ncn(CC(O)(Cn2cncn2)c2ccc(-c3ccccc3)cc2)n1 (stereo not shown) [Compound 19, 1-(3-nitro-1H-1,2,4-triazol-1-yl)-2-(4-phenylphenyl)-3-(1H-1,2,4-triazol-1-yl)propan-2-ol], the “apparent Kd, fold stronger than fluconazole” value [9] is reported as 10 fold, the “reversibility of TcCYP51 inhibition” value [7] is reported as “irreversible” and the “Caco 2 permeability ranking” value [8] is reported as “high”.
With Fc1ccc(C2(Cn3cncn3)Cn3ccnc3O2)c(F)c1 (stereo not shown) [Compound 20, 1-{[2-(2,4-difluorophenyl)-2H,3H-imidazo[2,1-b][1,3]oxazol-2-yl]methyl}-1H-1,2,4-triazole] the “fold less potent against T. cruzi than 18” value [3] was “about 5 fold”, the Bnz/comp [3] was 0.35 and the “SI (IC50 in L6 cells/IC50 in T. cruzi)” value [3] was greater than 49.4.
In the case of Cc1ccc(S(=O)(=O)NC(Cc2ccccc2)Cn2cnc([N+](=O)[O-])n2)cc1 (stereo not shown) [Compound 21, 4-Methyl-N-[1-(3-nitro-1H-1,2,4-triazol-1-yl)-3-phenylpropan-2-yl]benzene-1-sulfonamide], the “fold less potent against T. cruzi than 17” value [3] is reported as “about 3 fold”, the “antichagasic activity class” value [3] is reported as “active” and the Bnz/comp [3] is reported as 1.7.
In the case of O=[N+]([O-])c1ncn(CCCNS(=O)(=O)c2ccc(Cl)s2)n1 [Compound 23], the Bnz/comp ([10]; fold potency against T. cruzi relative to Bnz) is given as 3.6, the IC50 [10, 16] is given as 438 nM and the “SI (IC50 in L6 cells/IC50 in T. cruzi)” value ([10]; selectivity index vs L6 cells) is given as 556. For the same compound, the IC50 [11, 15] was 1990 nM, the “SI (IC50 in L6 cells/IC50 in T.b. rhodesiense)” value ([11]; selectivity index vs L6 cells) was 122 and the PSA [12] was 122.7 Å^2. The IC50 [13] was 244 µM.
With Nc1nc(N)nc(Nc2ccc([As]3SCC(CO)S3)cc2)n1 (stereo not shown) [Melars., Melarsoprol, reference compound] the IC50 ([2]; Trypanosoma brucei, RHODESIENSE|STIB900, read-out: T.b.rhod. IC-50) was 7 ± 1 nM.
For CC1CS(=O)(=O)CCN1/N=C/c1ccc([N+](=O)[O-])o1 (stereo not shown) [Nfx, 4-(5-nitrofurfurylindenamino)-3-methylthio-morpholine-1,1-dioxide], the “cure rates, chronic stage” value [4] is listed as 15-30%.
Work on CNC(=C[N+](=O)[O-])NCCSCc1ccc(CN(C)C)o1 [Ranitidine, reference compound] yielded a Papp A→B at 2 h, 10 µM [14] of 0.24 ×10⁻⁶ cm/s.
For CC[C@@H]([C@H](C)O)n1ncn(-c2ccc(N3CCN(c4ccc(OC[C@@H]5CO[C@@](Cn6cncn6)(c6ccc(F)cc6F)C5)cc4)CC3)cc2)c1=O [posaconazole], the treatment failure ([4]; clinical trials, human patients with chronic Chagas disease) is given as roughly 80%.
